Here are results for 18 molecules from PMC6130710 (Pharmaceutical Biology, 2017).

Assay [1] is described as follows: DPPH radical scavenging activity. The procedure: The antioxidant activity of the extract was evaluated through the free radical scavenging effect on 2,2′-diphenyl-1-picrylhydrazyl (DPPH) (Sigma) radical as previously reported (Yen & Hsieh [1997]) with slight modifications. 100 μL of 0.10 mM DPPH ethanolic solution was added to 20 μL of the sample with various concentrations. The mixture was thoroughly mixed and kept in the dark for 30 min. The absorbance was measured at 517 nm using a Sunrise microplate reader spectrophotometer.

Assay [2] deals with rat intestinal α-glucosidase (maltase). The experiment in a line: rat intestinal α-glucosidase (maltase) inhibition assay. It counts as biochemical. Conditions: rat intestine; for IC50: compounds, Table 2. The procedure: (§1) 1 D and 2 D NMR spectra were recorded on a Bruker 400 AVANCE spectrometer, and the chemical shifts were reported in parts per million (ppm) using tetramethylsilane (TMS) as the internal standard. Melting points were determined on a Fisher-Johns Melting Point apparatus. Adsorbents such as silica gel 60 (Merck) were used for column and radial (chromatotron model 7924 T, Harrison Research) chromatographies. Merck silica gel 60F254 plates were used for TLC. HRESIMS spectra were obtained using a Bruker MICROTOF model mass spectrometer. UV-visible absorption spectra were recorded using a UV-2550 (SHIMADZU) UV-Vis spectrometer (Shimadzu, Kyoto, Japan). α-Glucosidase (EC 3.2.1.20) from Saccharomyces cerevisiae and 4-nitrophenyl-α-D-glucopyranoside (p-NPG) were obtained from Sigma-Aldrich (St. Louis, MO). Acarbose was obtained from Bayer Vitol Leverkusen, Germany. Rat intestinal acetone powder was supplied by Sigma Aldrich.
(§2) Moreover, previous procedure (Damsud et al. [2013]) was also applied to determine inhibitory activity of isolated compounds against intestinal α-glucosidases (maltase and sucrase). Briefly, 10 μL of the test sample and substrate solution (maltose: 10 mM, 20 μL; sucrose: 100 mM, 20 μL, respectively) in 0.1 M phosphate buffer (pH 6.9) were incubated at 37 °C (20 min for maltase and 60 min for sucrase). The mixture was discontinued in boiling water for 10 min, and glucose released from the reaction was converted to quinoneimine using a commercial Glu Kit (Human, Germany). The absorbance of final product was determined at 503 nm, and percent inhibition was calculated using the aforementioned equation.

The target of assay [3] is T1, rat intestinal α-glucosidase (sucrase) (Rattus norvegicus, UniProt P23739).
T1 construct: tissue Sigma Aldrich; host or cells: rat intestinal acetone powder
Briefly: rat intestinal α-glucosidase (sucrase) inhibition assay. It counts as biochemical. Conditions: rat intestine; compounds, Table 2. Here is the method:
as §1, with “Acarbose was obtained from Bayer Vitol Leverkusen, Germany.” left out
as §2

In assay [4] the target is T2, α-Glucosidase (EC 3.2.1.20) from Saccharomyces cerevisiae (Baker's yeast) (Saccharomyces cerevisiae, UniProt P53341).
T2 construct: purchased Sigma-Aldrich (St. Louis, MO)
Briefly: biochemical. Here is the method: as §1, with “Acarbose was obtained from Bayer Vitol Leverkusen, Germany.” left out
The evaluation of the inhibitory activity of all compounds against yeast and rat intestinal (maltase and sucrase) α-glucosidases was applied from a previous procedure (Damsud et al. [2013]). The inhibitory effect against yeast α-glucosidase was determined using the protocol previously described. Briefly, 10 μL of sample was mixed with α-glucosidase (0.1 U/mL) in 1 mM phosphate buffer (pH 6.9) and incubated at 37 °C for 10 min. The reaction mixture was added with 1 mM p-nitrophenyl-α-D-glucopyranoside (PNPG, 50 μL) followed by additional 20 min incubation. p-Nitrophenoxide liberated from the reaction was quantified by a microplate reader (UV 405 nm) after the addition of 1 M Na2CO3 (100 μL). The percent inhibition was deduced using the following equation. (A0-A1)/A0×100 where A1 and A0 are absorbances with and without the sample, respectively.

[5] abbreviates: compounds, Table 2, read-out: IC50 Baker's yeast α-glucosidase.
Where [6] appears, read: IC50 Baker's yeast α-glucosidase, compounds, Table 2.

Converted amounts (≈) assume the structure as drawn. Read-outs that look alike come from different tables or passages of the source. A value given as a limit tells only on which side of the number the result lay.

T2 sequence (P53341 whole entry): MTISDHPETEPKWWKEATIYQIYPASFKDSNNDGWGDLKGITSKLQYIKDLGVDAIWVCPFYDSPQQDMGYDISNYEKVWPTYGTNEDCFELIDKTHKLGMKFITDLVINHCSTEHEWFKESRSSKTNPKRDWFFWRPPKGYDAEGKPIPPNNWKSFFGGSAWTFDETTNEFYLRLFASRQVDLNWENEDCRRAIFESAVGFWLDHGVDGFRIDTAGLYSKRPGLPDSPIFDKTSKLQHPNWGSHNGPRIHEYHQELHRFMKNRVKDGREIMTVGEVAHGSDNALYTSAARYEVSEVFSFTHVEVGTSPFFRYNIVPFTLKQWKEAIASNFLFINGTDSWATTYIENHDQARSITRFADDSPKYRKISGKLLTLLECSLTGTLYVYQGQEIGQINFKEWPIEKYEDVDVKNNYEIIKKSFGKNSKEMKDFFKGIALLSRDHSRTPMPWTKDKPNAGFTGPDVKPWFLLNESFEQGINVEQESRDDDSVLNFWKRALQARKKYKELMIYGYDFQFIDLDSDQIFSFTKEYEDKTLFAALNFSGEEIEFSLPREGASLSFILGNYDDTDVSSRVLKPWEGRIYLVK
T1 sequence (P23739 1014-1841 limits assumed): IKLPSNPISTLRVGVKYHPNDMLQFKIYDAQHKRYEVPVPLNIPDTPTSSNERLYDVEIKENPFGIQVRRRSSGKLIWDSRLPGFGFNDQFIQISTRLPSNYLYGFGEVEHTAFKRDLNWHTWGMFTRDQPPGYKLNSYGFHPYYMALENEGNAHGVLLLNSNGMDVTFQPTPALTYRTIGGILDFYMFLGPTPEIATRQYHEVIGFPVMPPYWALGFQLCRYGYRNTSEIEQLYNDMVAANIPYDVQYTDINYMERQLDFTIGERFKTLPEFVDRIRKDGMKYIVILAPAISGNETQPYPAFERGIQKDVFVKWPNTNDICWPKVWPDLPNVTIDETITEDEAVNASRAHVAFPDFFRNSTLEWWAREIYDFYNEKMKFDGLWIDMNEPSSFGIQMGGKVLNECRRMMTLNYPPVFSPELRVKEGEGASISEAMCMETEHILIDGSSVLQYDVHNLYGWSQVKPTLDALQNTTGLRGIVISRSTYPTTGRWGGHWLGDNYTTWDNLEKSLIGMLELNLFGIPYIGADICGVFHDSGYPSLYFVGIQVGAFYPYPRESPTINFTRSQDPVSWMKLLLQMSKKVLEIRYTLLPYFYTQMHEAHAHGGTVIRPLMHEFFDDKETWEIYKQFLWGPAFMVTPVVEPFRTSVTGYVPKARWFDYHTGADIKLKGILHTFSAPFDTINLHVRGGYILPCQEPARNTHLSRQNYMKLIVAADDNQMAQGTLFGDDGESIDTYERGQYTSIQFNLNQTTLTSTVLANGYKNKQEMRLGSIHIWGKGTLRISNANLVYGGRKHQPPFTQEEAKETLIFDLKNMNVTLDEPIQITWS
T1 sequence (P23739 1-1013 partner limits assumed): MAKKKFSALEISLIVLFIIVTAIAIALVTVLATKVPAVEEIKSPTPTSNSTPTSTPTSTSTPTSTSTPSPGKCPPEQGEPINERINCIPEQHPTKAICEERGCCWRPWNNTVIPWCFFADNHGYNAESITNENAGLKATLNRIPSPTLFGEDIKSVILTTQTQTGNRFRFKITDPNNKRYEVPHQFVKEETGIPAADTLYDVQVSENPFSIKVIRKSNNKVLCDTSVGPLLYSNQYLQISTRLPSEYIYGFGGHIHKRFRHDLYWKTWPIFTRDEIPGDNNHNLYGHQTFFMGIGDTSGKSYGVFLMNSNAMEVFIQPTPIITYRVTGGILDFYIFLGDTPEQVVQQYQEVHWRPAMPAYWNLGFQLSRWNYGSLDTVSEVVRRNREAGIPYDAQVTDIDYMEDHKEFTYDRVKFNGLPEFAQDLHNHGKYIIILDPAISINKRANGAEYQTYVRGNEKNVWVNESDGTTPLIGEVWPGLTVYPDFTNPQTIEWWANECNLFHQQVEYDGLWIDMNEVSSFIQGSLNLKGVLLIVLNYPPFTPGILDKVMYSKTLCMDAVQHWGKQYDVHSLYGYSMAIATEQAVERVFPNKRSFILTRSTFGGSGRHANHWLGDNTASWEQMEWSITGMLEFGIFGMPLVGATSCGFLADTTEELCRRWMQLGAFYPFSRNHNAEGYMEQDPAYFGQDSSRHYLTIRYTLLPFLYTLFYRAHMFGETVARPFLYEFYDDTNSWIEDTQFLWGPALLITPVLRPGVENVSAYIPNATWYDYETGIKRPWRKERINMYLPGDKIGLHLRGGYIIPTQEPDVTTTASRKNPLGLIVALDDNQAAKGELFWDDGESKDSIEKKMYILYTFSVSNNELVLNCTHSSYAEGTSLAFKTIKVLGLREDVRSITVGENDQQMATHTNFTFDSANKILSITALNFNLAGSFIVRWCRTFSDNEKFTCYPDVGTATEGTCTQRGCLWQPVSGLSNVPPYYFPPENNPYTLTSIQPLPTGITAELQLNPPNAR

In assay [1] (compounds, Table 2), `O=C1O[C@H]([C@@H](O)CO)C(O)=C1O` [Vitamin C, reference compound] registered an IC50 of 0.158 ± 0.0019 mM. The “IC50 DPPH” value in assay [1] (fractions A-G, Table 1) was 28 ± 1560 µg/mL (≈ 159 µM).
Take `C=C(C)[C@@H]1CC[C@]2(C(=O)N(C(=O)NC3CCCCC3)C3CCCCC3)CC[C@]3(C)[C@H](CC[C@@H]4[C@@]5(C)CC[C@H](OC(=O)CCCC)C(C)(C)[C@@H]5CC[C@]43C)[C@@H]12` [Compound 2k]: the IC50 is above 3 mM in assay [2]; above 3 mM in assay [3]; above 0.6 mM in assay [4] (setting [5]); above 10 mM in assay [1] (compounds, Table 2).
With `COc1cc([C@H]2c3c(cc(OC)c(O)c3OC)C[C@@H](CO)[C@@H]2CO[C@@H]2O[C@H](CO)[C@@H](O)[C@H](O)[C@H]2O)cc(OC)c1O` [Compound 4, (+)-lyoniresinol-3α-O-β-D-glucopyranoside], the half-inhibitory concentration (IC50) was 0.373 ± 0.00105 mM in assay [2]; 1.214 ± 0.00201 mM in assay [3]; above 0.6 mM in assay [4] (setting [5]); 3.795 ± 0.00042 mM in assay [1] (compounds, Table 2).
On to `C=C(C)[C@@H]1CC[C@]2(C)CC[C@]3(C)[C@H](CC[C@@H]4[C@@]5(C)CC[C@H](O)C(C)(C)[C@@H]5CC[C@]43C)[C@@H]12` [Compound 1, lupeol], for which the IC50 is above 3 mM in assay [2]; above 3 mM in assay [3]; 0.0372 ± 0.00022 mM in assay [4] (setting [6]); 0.037 mM in assay [4] (experimental IC50 yeast α-glucosidase, restated in mM in docking section); above 10 mM in assay [1] (compounds, Table 2). For the same molecule, the “IC50 DPPH” value in assay [1] (compounds, Table 2) is on record as “no activity”.
With `C[C@H]1O[C@H](O[C@H]2[C@H](O)[C@@H](O)[C@@H](O[C@H]3[C@H](O)[C@@H](O)C(O)O[C@@H]3CO)O[C@@H]2CO)[C@H](O)[C@@H](O)[C@@H]1N[C@H]1C=C(CO)[C@@H](O)[C@H](O)[C@H]1O` (some centres unmarked) [Acarbose, reference compound], in assay [2], the IC50 stood at 0.0079 ± 0.00094 mM. Further, the “IC50 Maltase” value in assay [2] (fractions A-G, Table 1) came out at 5.1 ± 940 µg/mL (≈ 7.9 µM).
Regarding `C=C(C)[C@@H]1CC[C@]2(C(=O)O)CC[C@]3(C)[C@H](CC[C@@H]4[C@@]5(C)CC[C@H](OC(=O)CCCCC)C(C)(C)[C@@H]5CC[C@]43C)[C@@H]12` [Compound 2e], the IC50 was above 3 mM in assay [2]; above 3 mM in assay [3]; 0.0721 ± 0.00154 mM in assay [4] (setting [5]); above 10 mM in assay [1] (compounds, Table 2).
As for `C=C(C)[C@@H]1CC[C@]2(C(=O)O)CC[C@]3(C)[C@H](CC[C@@H]4[C@@]5(C)CC[C@H](OC(=O)c6ccccc6)C(C)(C)[C@@H]5CC[C@]43C)[C@@H]12` [Compound 2f], the IC50 is above 3 mM in assay [2]; above 3 mM in assay [3]; 0.0731 ± 0.00096 mM in assay [4] (setting [5]); above 10 mM in assay [1] (compounds, Table 2).
In the case of `C=C(C)[C@@H]1CC[C@]2(C(=O)N(C(=O)NC3CCCCC3)C3CCCCC3)CC[C@]3(C)[C@H](CC[C@@H]4[C@@]5(C)CC[C@H](OC(=O)CC)C(C)(C)[C@@H]5CC[C@]43C)[C@@H]12` [Compound 2i], the IC50 in assay [2] was above 3 mM; in assay [3] it was above 3 mM; in assay [4] (setting [5]) it was 0.368 ± 0.00164 mM; in assay [1] (compounds, Table 2), above 10 mM.
Consider `C=C(C)[C@@H]1CC[C@]2(C(=O)N(C(=O)NC3CCCCC3)C3CCCCC3)CC[C@]3(C)[C@H](CC[C@@H]4[C@@]5(C)CC[C@H](OC(=O)CCC)C(C)(C)[C@@H]5CC[C@]43C)[C@@H]12` [Compound 2j], for which the IC50 in assay [2] is above 3 mM; in assay [3], above 3 mM; in assay [4] (setting [5]), above 0.6 mM; in assay [1] (compounds, Table 2), above 10 mM.
As for `C[C@@H]1O[C@@H](O[C@H]2[C@H](Oc3c(-c4ccc(O)c(O)c4)oc4cc(O)cc(O)c4c3=O)O[C@@H](C)[C@H](O)[C@H]2O)[C@H](O)[C@H](O)[C@H]1O` [Compound 6, horridin], the IC50 in assay [2] was above 3 mM; in assay [3], above 3 mM; in assay [4] (setting [6]), above 0.6 mM; in assay [1] (compounds, Table 2), 0.0428 ± 0.00083 mM.
Take `C=C(C)[C@@H]1CC[C@]2(C(=O)N(C(=O)NC3CCCCC3)C3CCCCC3)CC[C@]3(C)[C@H](CC[C@@H]4[C@@]5(C)CC[C@H](OC(=O)CCCCC)C(C)(C)[C@@H]5CC[C@]43C)[C@@H]12` [Compound 2l]: the IC50 in assay [2] is above 3 mM; in assay [3] it was above 3 mM; in assay [4] (setting [5]) it was above 0.6 mM; in assay [1] (compounds, Table 2), above 10 mM.
As for `C=C(C)[C@@H]1CC[C@]2(C(=O)O)CC[C@]3(C)[C@H](CC[C@@H]4[C@@]5(C)CC[C@H](OC(C)=O)C(C)(C)[C@@H]5CC[C@]43C)[C@@H]12` [Compound 2a], the IC50 in assay [2] was above 3 mM; in assay [3], above 3 mM; in assay [4] (setting [5]) it was 0.0281 ± 0.00076 mM; in assay [1] (compounds, Table 2), above 10 mM.
With `C=C(C)[C@@H]1CC[C@]2(C(=O)N(C(=O)NC3CCCCC3)C3CCCCC3)CC[C@]3(C)[C@H](CC[C@@H]4[C@@]5(C)CC[C@H](OC(C)=O)C(C)(C)[C@@H]5CC[C@]43C)[C@@H]12` [Compound 2h], the IC50 in assay [2] is above 3 mM; in assay [3] it was above 3 mM; in assay [4] (setting [5]), 0.281 ± 0.00089 mM; in assay [1] (compounds, Table 2) it was above 10 mM.
As to `C[C@@H]1O[C@@H](O[C@H]2[C@H](Oc3c(-c4ccc(O)cc4)oc4cc(O)cc(O)c4c3=O)O[C@@H](C)[C@H](O)[C@H]2O)[C@H](O)[C@H](O)[C@H]1O` [Compound 5, kaempferol-3-O-α-L-rhamnopyranosyl-(1→2)-α-L-rhamnopyrano side], the IC50 in assay [2] was above 3 mM; in assay [3], above 3 mM; in assay [4] (setting [6]) it was above 0.6 mM; in assay [1] (compounds, Table 2), 6.019 ± 0.00136 mM.
Consider `C=C(C)[C@@H]1CC[C@]2(C(=O)O)CC[C@]3(C)[C@H](CC[C@@H]4[C@@]5(C)CC[C@H](OC(=O)CC)C(C)(C)[C@@H]5CC[C@]43C)[C@@H]12` [Compound 2b], for which the IC50 in assay [2] was above 3 mM; in assay [3], above 3 mM; in assay [4] (setting [5]), 0.0433 ± 0.00019 mM; in assay [1] (compounds, Table 2), above 10 mM.
`Cc1cc(C(C)(C)C)c(O)c(C(C)(C)C)c1` [BHT, reference compound] yielded an IC50 in assay [1] (compounds, Table 2) of 0.328 ± 0.00056 mM. Further, the “IC50 DPPH” value in assay [1] (fractions A-G, Table 1) is 72 ± 350 µg/mL (≈ 327 µM).
With `C=C(C)[C@@H]1CC[C@]2(C(=O)O)CC[C@]3(C)[C@H](CC[C@@H]4[C@@]5(C)CC[C@H](OC(=O)CCC)C(C)(C)[C@@H]5CC[C@]43C)[C@@H]12` [Compound 2c], the IC50 in assay [2] was above 3 mM; in assay [3], above 3 mM; in assay [4] (setting [5]), 0.158 ± 0.00122 mM; in assay [1] (compounds, Table 2), above 10 mM.
With `C=C(C)[C@@H]1CC[C@]2(C(=O)O)CC[C@]3(C)[C@H](CC[C@@H]4[C@@]5(C)CC[C@H](OC(=O)CCCC)C(C)(C)[C@@H]5CC[C@]43C)[C@@H]12` [Compound 2d], the IC50 in assay [2] is above 3 mM; in assay [3] it was above 3 mM; in assay [4] (setting [5]), 0.269 ± 0.00322 mM; in assay [1] (compounds, Table 2), above 10 mM.
